Data set [1] concerns erythrocytes. As to the kind of experiment: Comparison of hemolytic activities (HD50). Particulars: 10% rabbit erythrocyte suspension; 37° C., 1 hour; from linear regression over 40-200 μg/ml. The format is cell-based, rabbit. On the procedure:
The test samples were dissolved in DMSO/physiological saline (1:4) as a solvent to generate the tested concentration gradients of 40, 80, 120, 160, 200 μg/ml. Blood (25 ml) was taken from a rabbit heart, poured into an erlenmeyer flask containing glass beads and shook gently for 10 min to remove fibrinogen so as to convert the blood into defidrinated blood. The resultant blood was transferred into a graduation centrifugal tube. About 10 times physiological saline was added, shook up and centrifuged at 2000 r/min for 5 minutes. The supernatant was removed, and the precipitated erythrocytes were washed with physiological saline again by the above method for 4 times until the supernatant was colorless and transparent. The resulant erythrocytes were prepared into a 10% suspension using physiological saline for testing. 250 μl of the 10% erythrocyte suspension was added into 2.5 ml of a tested sample, solvent (blank control) or distilled water (positive control), mixed thoroughly, and immediately placed in a thermotank maintained at 37° C. for incubation; and it was taken out 1 hour later and centrifuged at 3000 r/min for 5 minutes. The supernatant was taken for determining the OD value at 540 nm with a spectrophotometer. Hemolysis (Hemolysis Percentage)=(absorbance of sample−absorbance of blank control)×100%÷(absorbance of positive control-absorbance of blank control); and the data processing was performed by SPSS13.0 statistical software with drug concentration as an independent variable X and hemolysis as a dependent variable Y to obtain a linear regression equation; then, the drug concentration causing 50% hemolysis, i.e HD50, was calculated according to the equation. A P-value <0.05 was considered statistically significant.

For data set [2], the system named is leukocytes (WBC). As to the kind of experiment: Cyclophosphamide-induced leukopenia in mice: leukocytes (WBC). The format is in vivo, Kunming mice. On the procedure:
(§1) Further, in vivo experiments were carried out on the compounds involved in the present invention using animal models of cyclophosphamide-induced leukopenia in mice. Experimental methods are briefed as follows: Healthy Kunming mice, of which half were male and the other half were female, were divided into groups, each group incuding 18 mice, and those mice weighing 18-22 g were selected and divided into groups randomly according to their body weights. Each group was given a different drug, wherein the negative control group and model control group were given physiological saline of the same volume, and the positive control group was treated with granulocyte colony-stimulating factors 40 μg/kg through subcutaneous injection (injection volume: 0.1 ml/10 g). After administration for 3 days, except the negative control group, other treatment groups were treated with 100 mg/kg cyclophosphamide (CY) through lumbar injection once a day for three days to cause a decrease of leukocytes in mice. A drop of blood (20 μl) was taken from posterior orbital venous plexus to detect the hemogram to observe the situation of leukocytes and platelets on day 1, day 3 and/or day 5 after the final lumbar injection of cyclophosphamide (i.e day 1, day 3 and/or day 5 after modeling) (Note: Each treatment group was administrated incessantly). The mice were killed on day 5 after the final lumbar injection of cyclophosphamide (i.e day 5 after modeling), and the leukocytes (WBC) and platelets (PLT) of the hemogram index were counted.
This experiment mainly studies the effect of G-1, G-6 and G-8 of ursolic acid saponin in increasing leukocytes, and compares the therapeutic effects of aglycon of ursolic acid and oleanolic acid and of the compound G-22 which has been disclosed by a patent.
(§2) The purpose of this experiment is to study the effect of G-1, G-3, G-11 and G-12 of ursolic acid saponin and oleanolic acid saponin in increasing platelets, and to observe whether G-11 and G-12 of oleanolic acid saponin have an effect in increasing leukocytes.

Data set [3] has as its system bone marrow mononuclear cell (BMMNC). As to the kind of experiment: Monocytic proliferation in bone marrow of mice cultured in vitro (SRB method). The format is cell-based, KunMing mice. Particulars: cultured 5 days; for Growth Rate of Proliferation %, 1 μg/ml: versus blank control. The source says: 15-20 KunMing mice (purchased from Laboratory Animal Center of Zhengzhou University, Henan) of either sex were killed by cervical vertebral dislocation. Bilateral thighbones were isolated and caput femoris was cut off. The marrow was washed repeatedly with serum-free RPMI1640 (Gibco Corp.), the wash solution containing marrow cells was collected, sucked and blew repeatedly with a pipette to make the cells disperse. After standing for a moment, the supernatant was sucked up and centrifugated at 100 g for 3 min to collect the cell pellet. The cells were resuspended in a culture media and brought to a volume of 5 ml. The cell suspension was added to the upper layer of a centrifugal tube containing 5 ml of a lymphocyte separation medium of mice and centrifugated at 400 g for 30 min. The milk-white bone marrow mononuclear cell (BMMNC) layer in the middle of the interface was collected and washed with serum-free medium RPMI1640 for three times to obtain a BMMNC suspension, which was inoculated into a 96-well plate at forty thousand per well after counting. Positive drugs rhG-CSF (recombinant granulocyte colony-stimulating factor, manufactured by QI LU Pharmaceutical Co., LTD., Shandong) or test samples of different concentrations were added, and meanwhile a blank control group without drug was established. They were cultured in a 5% CO2 incubator at 37 for 5 days. Cell proliferation was measured by a conventional SRB (Sigma) method in which OD at 490 nm was measured after being dyed with SRB. The growth rates of cell proliferation after drug treatment were calculated (Growth rate of cell proliferation=experimental group-blank control group/blank control group*100%).

Data set [4] relates to platelets (PLT). As to the kind of experiment: Cyclophosphamide-induced leukopenia in mice: platelets (PLT). In kind it is in vivo, Kunming mice. As to conditions: Experimental Example 3. As for the experimental part: as §1, §2
Data set [5] relates to WBC. As to the kind of experiment: 60Co-γ-induced leukopenia in mice: WBC. In kind it is in vivo, Kunming mice. The source says: In order to illustrate the present invention in detail, with a model induced by ^60Co-γ rays, the effects of G-1 and G-22 on leukocytes of chemotherapy-induced-leukopenia mice were compared. The specific operation and the results are as follows.
Healthy Kunming mice, of which half were male and the other half were female, were divided into 6 groups randomly, with 17-18 in each group. Blood was taken from caudal vein to determine the normal hemogram (leucocyte, erythrocyte, platelet and hemoglobin), and adjustments were made according to body weights and hemogram results. The normal control group and model group were given isometric physiological saline once a day for 7 days, and then the post-radiation hemogram was determined. Except the normal control group, other groups were each subjected to a whole body exposure to ^60Co-γ rays at a total dose of 3.0 Gy to prepare the models of leukopenia in mice, followed by further administration for 14 days. The G-CSF group was adminitrated through subcutaneous injection for 5 days from the irradiation day on and the hemogram was determined by taking blood respectively on day 3, day 7 and day 14 after irradiation.

Setting [6] is: Experimental Example 2, 0.8 mg/kg.
Where [7] appears, read: Experimental Example 2, 0.8 mg/kg, CY 100 mg/kg x 3 days.
The mark [8] stands for this setting: Experimental Example 2, 0.8 mg/kg, especially on day 3 after modeling.
[9] abbreviates: 0.80 mg/kg i.g., 3.0 Gy whole body.
Setting [10] is: Experimental Example 3, 0.8 mg/kg.
[11] abbreviates: 40 μg/kg subcutaneous injection.
[12] abbreviates: 40 μg/kg s.c. for 5 days from irradiation day, 3.0 Gy.
Setting [13] is: Experimental Example 2, 40 μg/kg subcutaneous injection.
[14] abbreviates: Experimental Example 3, 40 μg/kg subcutaneous injection.

Marks after values point to notes of the source that are not given here.

`C[C@H]1[C@H](C)CC[C@]2(C(=O)O[C@@H]3O[C@H](CO)[C@@H](O)[C@H](O)[C@H]3O)CC[C@]3(C)C(=CC[C@@H]4[C@@]5(C)CC[C@H](O[C@@H]6OC[C@H](O)[C@H](O)[C@H]6O)C(C)(C)[C@@H]5CC[C@]43C)[C@H]12` [Sample G-8, 3-O-(α-L-arabopyranosyl) ursolic acid-28-O-(β-D-glucopyranosyl) ester]: the “HD50 (drug concentration causing 50% hemolysis)” value in data set [1] is 69.96 µg/mL. For the same molecule, in data set [2] (setting [6]), the “leukocytes (WBC), Day 3 after modeling” value is reported as 6.91 ± 2.54**★ and the “leukocytes (WBC), Day 5 after modeling” value is 15.32 ± 9.07. In addition, the “leukocytes (WBC), Day1 after modeling” value in data set [2] (setting [7]) is listed as 0.85 ± 0.39. In data set [2] (setting [8]), the “difference in increasing leukocytes compared with G-22 (in words)” value (shortened to “difference in increasing leukocytes”) is on record as “obvious difference in increasing leukocytes”. Also, the “Growth Rate of Proliferation %, 1 μg/ml” value in data set [3] stood at 29.5%.
As for `C[C@H]1[C@H](C)CC[C@]2(C(=O)O)CC[C@]3(C)C(=CC[C@@H]4[C@@]5(C)CC[C@H](O[C@@H]6OC[C@H](O)[C@H](O)[C@H]6O)C(C)(C)[C@@H]5CC[C@]43C)[C@H]12` [Sample G-6, 3-O-(α-L-arabopyranosyl) ursolic acid], the “HD50 (drug concentration causing 50% hemolysis)” value in data set [1] turned out to be 121.40 µg/mL. In addition, in data set [2] (setting [6]), the “leukocytes (WBC), Day 3 after modeling” value is 7.13 ± 2.61**★ and the “leukocytes (WBC), Day 5 after modeling” value is 17.16 ± 14.13. The “leukocytes (WBC), Day1 after modeling” value in data set [2] (setting [7]) is reported as 1.19 ± 0.47. For the same molecule, in data set [2] (setting [8]), the “difference in increasing leukocytes” value is given as “obvious difference in increasing leukocytes”. The “Growth Rate of Proliferation %, 1 μg/ml” value in data set [3] came out at 29.9%.
For `C[C@@H]1CC[C@]2(C(=O)O[C@@H]3O[C@H](CO)[C@@H](O)[C@H](O)[C@H]3O)CC[C@]3(C)C(=CC[C@@H]4[C@@]5(C)CC[C@H](O[C@@H]6OC[C@H](O)[C@H](O)[C@H]6O)C(C)(C)[C@@H]5CC[C@]43C)[C@@H]2[C@]1(C)O` [Sample G-22, 3-O-(α-L-arabopyranosyl)-19-hydroxy-ursolic acid-28-O-(β-D-glucopyranosyl) ester, reference compound], in data set [4] (0.8 mg/kg), the “platelets, Day 1 after modelng” value came out at 491.36 ± 126.28 and the “platelets, Day 5 after modeling” value was determined as 210.00 ± 119.38. Also, in data set [5] (0.80 mg/kg gastric perfusion, versus model group, day 7 and day 14 after irradiation), the “effect on leucocyte count of leukopenia mice (in words)” value is on record as “no evident effect”. The “WBC, 1 week after administration” value in data set [5] (0.80 mg/kg i.g. once a day for 7 days, before irradiation) is 9.50 ± 3.17 109/L. For the same molecule, in data set [5] (setting [9]), the “WBC, Day 3 after irradiation” value was 2.21 ± 0.92 109/L; the “WBC, Day 7 after irradiation” value was 4.08 ± 1.50 109/L; the “WBC, Day 14 after irradiation” value was 5.44 ± 1.13 109/L. The “WBC, Normal” value in data set [5] (normal hemogram before administration (baseline), 0.80 mg/kg i.g. group) was 8.56 ± 2.43 109/L. For the same molecule, in data set [2] (setting [6]), the “leukocytes (WBC), Day 3 after modeling” value is reported as 5.17 ± 1.77 and the “leukocytes (WBC), Day 5 after modeling” value came to 11.87 ± 9.53. Also, the “leukocytes (WBC), Day1 after modeling” value in data set [2] (setting [7]) is 1.08 ± 0.34Δ. In data set [2] (setting [10]), the “leukocytes, Day 1 after modeling” value is on record as 0.92 ± 0.28 and the “leukocytes, Day 5 after modeling” value came out at 8.81 ± 6.44. Besides, the “Growth Rate of Proliferation %, 1 μg/ml” value in data set [3] is given as 15.2%.
Consider `C[C@H]1[C@H](C)CC[C@]2(C(=O)O[C@@H]3O[C@H](CO)[C@@H](O)[C@H](O)[C@H]3O)CC[C@]3(C)C(=CC[C@@H]4[C@@]5(C)CC[C@H](O[C@@H]6O[C@H](CO)[C@@H](O)[C@H](O)[C@H]6O)C(C)(C)[C@@H]5CC[C@]43C)[C@H]12` [Sample G-3, 3-O-(β-D-glucopyranosyl) ursolic acid-28-O-(β-D-glucopyranosyl) ester], for which the “HD50 (drug concentration causing 50% hemolysis)” value in data set [1] was 137.99 µg/mL. Also, in data set [4] (0.8 mg/kg), the “platelets, Day 1 after modelng” value stood at 473.12 ± 144.68 and the “platelets, Day 5 after modeling” value is reported as 341.93 ± 186.39**★. Also, in data set [4] (0.8 mg/kg, day 5 after modeling), the “difference in increasing platelets compared with G-22 (in words)” value was “significant difference in increasing leukocytes and platelets”. Further, in data set [2] (setting [10]), the “leukocytes, Day 1 after modeling” value stood at 1.16 ± 0.53 and the “leukocytes, Day 5 after modeling” value was found to be 5.62 ± 2.78. In data set [2] (Experimental Example 3, 0.8 mg/kg, day 5 after modeling), the “difference in increasing leukocytes” value was “significant difference in increasing leukocytes and platelets”. Moreover, in data set [3], the “Growth Rate of Proliferation %, 1 μg/ml” value is recorded as 25.2%.

B1: G-CSF: recombinant granulocyte colony-stimulating factor, manufactured by QI LU Pharmaceutical Co., LTD., Shandong (protein, UniProt P09919 31-207, looked up)
Granulocyte …: TPLGPASSLPQSFLLKCLEQVRKIQGDGAALQEKLVSECATYKLCHPEELVLLGHSLGIPWAPLSSCPSQALQLAGCLSQLHSGLFLYQGLLQALEGISPELGPTLDTLQLDVADFATTIWQQMEELGMAPALQPTQGAMPAFASAFQRRAGGVLVASHLQSFLEVSYRVLRHLAQP
On to B1, for which, in data set [4] (setting [11]), the “platelets, Day 1 after modelng” value came to 408.38 ± 86.38 and the “platelets, Day 5 after modeling” value was found to be 206.64 ± 140.14. The “effect in increasing platelets (in words)” value in data set [4] (G-CSF 40 μg/kg subcutaneous injection) is listed as “no obvious effect in increasing platelets”. Further, in data set [5] (setting [12]), the “WBC, Day 3 after irradiation” value is 3.71 ± 1.11** 109/L; the “WBC, Day 7 after irradiation” value is given as 4.56 ± 1.17** 109/L; the “WBC, Day 14 after irradiation” value was 7.01 ± 1.52** 109/L. Also, the “WBC, 1 week after administration” value in data set [5] (G-CSF group before irradiation, G-CSF is given only from the irradiation day on) is on record as 9.89 ± 3.30 109/L. Also, in data set [5] (normal hemogram (baseline), G-CSF group, not yet dosed), the “WBC, Normal” value is 8.64 ± 2.01 109/L. Further, in data set [2] (setting [13]), the “leukocytes (WBC), Day1 after modeling” value is 1.17 ± 0.33; the “leukocytes (WBC), Day 3 after modeling” value turned out to be 5.93 ± 3.10; the “leukocytes (WBC), Day 5 after modeling” value worked out at 13.18 ± 5.53. Moreover, in data set [2] (setting [14]), the “leukocytes, Day 1 after modeling” value came to 0.63 ± 0.20 and the “leukocytes, Day 5 after modeling” value is listed as 9.70 ± 5.28. In data set [3] (G-CSF positive drug at 5 pg/ml), the “Growth Rate of Proliferation %” value turned out to be 33.2%.
